In patent US5623080A, “Fluorone and pyronin Y derivatives” (Spectra Group Limited, Inc., priority 1995, dated 1997):

How the values were obtained:
[1] = absorption wavelength (λmax) and extinction (ε); type: physicochemical; settings: for λmax in EtOH / λmax in EtOH (first value) / ε (first value) / ε: Table 1, EtOH; for ε (first value): at first λmax, in M-1cm-1 (unit assumed); for ε: at second λmax; for absorption wavelength: comparison
[2] = depth of cure; settings: other fluorone dyes
From the text: One of the advantages of the fluorone dye photoinitiators in this invention is the depth of the cure that is obtainable. This is in contrast to UV photoinitators that causes a "screening" effect which prevents the UV light from penetrating beyond a certain […] depth, usually several millimeters. By contrast, the fluorone dye bleaches as it photoinitiates and is concommitantly converted into a non-visible absorbing species thus allowing more visible light to penetrate which continues the cure. This cascading bleaching effect permits substantial depth of cure which can easily reach several inches.
An acrylate monomer mixture was composed of 15 parts urethane diacrylate, 20 parts TPGPA, 40 parts TMPTA and 15 parts DPHPA, and a 20 to 1 weight ratio of NPG coinitiator to DIEF or DIBF fluorone dye. For dye concentrations of 0.01, 0.05 and 0.1 weight, all the formulations cured to a depth of 3 cm in 30 seconds when exposed to a 350 watt tungsten halogen light which provides about 500 mw/cm^2 irradiance. When the irradiance was increased to about 2 watts/cm^2 cure speed was shortened to 5 seconds for the same depth.
An acrylate mixture was composed of 60% urethane diacrylate, 30% DPHPA, 10% BDDA, and 0.05 weight % of DIEF or DIBF fluorone dye with 2 weight % of DIDMA. The formulation cure to a depth greater than 1 cm in 10 seconds when exposed to a 75 watt tungsten halogen lamp which provided an irradiance of about 260 mw/cm^2.
An acrylate mixture was composed of 33% TMPTA, 33% DPHPA, 33% Epoxy acrylate, and 2% of DIDMA with either 0.01, 0.05 or 0.1 weight % of DIEF. All samples cured to a depth greater than 1 cm in 10 seconds when exposed to a 75 watt tungsten halogen.
An acrylate mixture was composed of 70% urethane diacrylate, 5% DPHPA, 25% BDDA, and 2% DIDMA with either 0.01, 0.03 or 0.1 weight % DIEF. The 0.01 and 0.03 samples cured after 2 passes through a 300 watt per inch medium pressure mercury arc lamp at a speed of 50 feet/minute to a depth greater than 3 mm. The 0.1 sample cured to a depth of greater than 1.5 mm.

[3] = double bond conversion (C=C% Conversion) by FTIR; settings: (1:2:3), DIDMA, 30 sec
Method: To a resin formulation consisting of 15 parts urethane diacrylate, 15 parts DPHPA, 20 parts TPGDA and 40 parts TMPTA was added DIDMA, initiator and (4-octyloxyphenyl)phenyliodonium hexafluoroantimonate (OPPI). The samples were coated to a thickness of 15 microns and exposed to a 75 W tungsten halogen dental lamp (focused through an optical fiber) at a distance of 0.75 inch at which the Light intensity was about 0.40 W/cm^2. The molar ratios are indicative of the amounts of fluorone to onium salt to amine coinitiator. The double bond conversion was determined by FTIR spectroscopy. The pencil hardness of a given test sample is measured by holding a pencil at a 45° angle to the sample and drawing across it towards the person testing it. Using the pencils in an order from softest to hardest, the first pencil that scratches the surface is assigned as the pencil hardness of the sample. The pencil hardness scale is as follows from softest to hardest: 4B, 3B, 2B, B, HB, H, 2H, 3H, 4H, 6H. For instance, if a 2H pencil is the first pencil to scratch the surface then the pencil hardness is 2H.

Molecule | λmax in EtOH (first value) [1] | ε (first value) [1] | further results
CC(C)(C)c1cc2c(C#N)c3cc(C(C)(C)C)c(=O)cc-3oc2cc1O [Compound 31, 9-cyano-2,7-di-t-butyl-3-hydroxy-6-fluorone] | 614 | 47400 | λmax in EtOH [1]: 564; ε [1]: 23200 M⁻¹ cm⁻¹
N#Cc1c2ccc(=O)cc-2oc2cc(O)c(CCCC(=O)O)cc12 [Compound 37b, 9-cyano-3-hydroxy-7-butyric acid-6-fluorone] | 596 | 74,000 | –
O=c1ccc2cc3ccc(O)cc3sc-2c1 [Compound 29, 3-hydroxy-6-thiafluorone] | 524 | – | –
C=CC(=O)OCCCCCCOc1ccc2cc3cc(I)c(=O)c(I)c-3oc2c1 [O O/O(CH2)6 OCOCH=CH2 H I H I H] | 472 | – | –
Cc1ccc(-n2c3cc(=N)ccc-3cc3ccc(N)cc32)cc1 [N.phi.CH3 NH2 /NH2 + H H H H H] | 472 | – | –
N#Cc1c2ccc(=O)cc-2sc2cc(O)ccc12 [S O/O^- CN H H H H] | 610 | – | –
5,7-diiodo-3-methoxy-6-fluorone [DIMF] | 470 | 23,500 | –
N#Cc1c2cc(Br)c(=O)c(Br)c-2oc2c(Br)c(O)c(Br)cc12 [Compound 14, 9-cyano-3-hydroxy-2,4,5,7-tetrabromo-6-fluorone] | 626 | 51400 | λmax in EtOH [1]: 576; ε [1]: 24500 M⁻¹ cm⁻¹
N#Cc1c2cc(I)c(=O)c(I)c-2oc2c(I)c(O)c(I)cc12 [TIHCF, 9-cyano-3-hydroxy-2,4,5,7-tetraiodo-6-fluorone] | 638 | 80000 | λmax in EtOH [1]: 586; ε [1]: 35000 M⁻¹ cm⁻¹; absorption wavelength [1]: 636 nm; λmax ([1]; ethanol, synthesis example): 638 nm; depth of cure results [2]: have also been observed
O=C(O)CCCc1cc2cc3ccc(O)cc3oc-2cc1=O [Compound 37a, 3-hydroxy-7-butyric acid-6-fluorone] | 512 | – | –
CCCCOc1ccc2c(C#N)c3cc(I)c(=O)c(I)c-3oc2c1 [Compound 7, 9-cyano-5,7-diiodo-3-butoxy-6-fluoorone] | 600 | – | –
CCCCCCCCOc1ccc2cc3cc(I)c(=O)c(I)c-3oc2c1 [DIOF, 5,7-diiodo-3-octoxy-6-fluorone] | 470 | 31,600 | C=C% Conversion ([3]; 0.05 wt %): 40%; C=C% Conversion ([3]; 0.15 wt %): 40%
CCCCCCCCc1cc2c(C#N)c3cc(I)c(=O)c(I)c-3oc2c(I)c1O [Compound 20, 9-cyano-3-hydroxy-4,5,7-triiodo-2-octyl-6-fluorone] | 630 | 40,000 | absorption wavelength [1]: 630 nm; λmax ([1]; in EtOH): 630 nm
CCOC(=O)CCCc1cc2cc3ccc(=O)cc-3oc2cc1O [O O/O^- H H H H (CH2)3 COOEt] | 510 | – | –
CC(C)(C)c1cc2cc3cc(C(C)(C)C)c(=O)cc-3oc2cc1O [Compound 30, 2,7-di-t-butyl-3-hydroxy-6-fluorone] | 518 | 101000 | –
CC(C)(C)c1cc2c(C#N)c3cc(C(C)(C)C)c(=O)c(I)c-3oc2c(I)c1O [Compound 27, 9-cyano-2,7-di-t-butyl-4,5-diiodo-3-hydroxy-6-fluorone] | 636 | 68300 | λmax in EtOH [1]: 582; ε [1]: 33600 M⁻¹ cm⁻¹
CC(C)(C)c1cc2cc3cc(C(C)(C)C)c(=O)c(I)c-3oc2c(I)c1O [Compound 26, 2,7-di-t-butyl-4,5-diiodo-3-hydroxy-6-fluorone] | 532 | 90800 | –
N#Cc1c2ccc(=O)cc-2oc2cc(O)ccc12 [O O/O^- CN H H H H, 9-Cyano-3-hydroxy-6-fluorone] | 594 | 50300 | λmax in EtOH [1]: 548; ε [1]: 24700 M⁻¹ cm⁻¹
CCCCCCCCc1cc2cc3cc(I)c(=O)c(I)c-3oc2c(I)c1O [O O/O^- H I H I (CH2)7 CH3, 3-hydroxy-4,5,7-triiodo-2-octyl-6-fluorone] | 534 | 92,600 | –
